Test results as given in the supplement of paper PMC10307832.

Columns and labels:
Assay in all cases: relative viability (nuclei count vs DMSO), 5 days (fraction); higher = more cells survive
[1] = compound: CCOC1=CC=CC=C1N=NC2=C(NN(C2=O)C3=NC(=CS3)C4=CC=CC=C4)C [BAM7] + N=C(N)NC(=N)NCCc1ccccc1 [Phenformin] (partner 250 µM)
How it was run: (§1)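 For relative viability, nuclei counts in treated wells were divided by those in vehicle wells. Lung cancer cell lines had been pin-tool dosed in 1536-well plates the day after seeding and cultured for 5 days, then fixed and stained in one step (final 0.05% Triton X-100, 1% formaldehyde, 1 ug/ml Hoechst) and imaged at 4×. Doses were one drug alone or a fixed anchor-drug dose plus five library-drug doses (not always all listed) in √10 steps, and values are duplicate-plate medians.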

[2] = compound: CCn1c(-c2nonc2N)nc2c(C#CC(C)(C)O)ncc(OC[C@H]3CCCNC3)c21 + CCNC(=O)c1noc(-c2cc(C(C)C)c(O)cc2O)c1-c1ccc(CN2CCOCC2)cc1 [Luminespib] (partner 0.01 µM)
How it was run: as §1

[3] = compound: CCn1c(-c2nonc2N)nc2c(C#CC(C)(C)O)ncc(OC[C@H]3CCCNC3)c21 + Cc1nc(NC(=O)N2CCC[C@H]2C(N)=O)sc1-c1ccnc(C(C)(C)C(F)(F)F)c1 [Alpelisib] (partner 2 µM)
How it was run: as §1

[4] = compound: CCOC1=CC=CC=C1N=NC2=C(NN(C2=O)C3=NC(=CS3)C4=CC=CC=C4)C [BAM7] + CC1(C)CCC(c2ccc(Cl)cc2)=C(CN2CCN(c3ccc(C(=O)NS(=O)(=O)c4ccc(N[C@H](CCN5CCOCC5)CSc5ccccc5)c(S(=O)(=O)C(F)(F)F)c4)cc3)CC2)C1 [Navitoclax] (partner 0.5 µM)
How it was run: as §1

With SW 1573 the relative viability ([1]; first compound 0.5 µM) was 0.386, the relative viability ([1]; first compound 5 µM) was 0.381 and the relative viability ([1]; first compound 15.81 µM) was 0.327. The relative viability ([1]; first compound 50 µM) was 0.39, the relative viability ([2]; first compound 0.01 µM) was 0.215 and the relative viability ([2]; first compound 0.03162 µM) was 0.563. The relative viability ([2]; first compound 0.1 µM) was 0.178, the relative viability ([2]; first compound 0.3162 µM) was 0.584 and the relative viability ([2]; first compound 1 µM) was 0.342. The relative viability ([3]; first compound 0.01 µM) was 0.717, the relative viability ([3]; first compound 0.03162 µM) was 0.783 and the relative viability ([3]; first compound 0.1 µM) was 0.656. The relative viability ([3]; first compound 0.3162 µM) was 0.73, the relative viability ([3]; first compound 1 µM) was 0.734 and the relative viability ([4]; first compound 0.5 µM) was 0.89. It also gave a relative viability ([4]; first compound 5 µM) of 1.02, a relative viability ([4]; first compound 15.81 µM) of 1.24 and a relative viability ([4]; first compound 50 µM) of 1.06.
